According to patent US20250000873A1, “INHALED ILOPROST FOR RESCUE TREATMENT AND TREATMENT AS NEEDED IN PULMONARY HYPERTENSION” (JUSTUS-LIEBIG-UNIVERSITAET GIESSEN, priority 2021, published 2025):
Entries after “also recorded” stand apart in the source; their conditions may differ.

Legend:
[1] = system: patients with pulmonary arterial hypertension; assay: Clinical pilot study of iloprost PRN, hemodynamics by intracardiac catheter and tolerability; type: in vivo, human
Description: A clinical pilot study to evaluate the feasibility of iloprost PRN was conducted with 4 patients. Eligible were male and female patients with pulmonary arterial hypertension in the age from 18 to 70 years having a mean pulmonary arterial blood pressure (PAP) higher than 25 mm Hg, a pulmonary vascular resistance (PVR) higher than 240 dyn*s*cm−5, a central venous pressure (CVP) higher than 3 mm Hg, and a pulmonary capillary wedge pressure (PCWP) lower than 12 mm Hg. Patients were therapy-naïve, or were receiving PH-specific medication (endothelin receptor antagonists, phosphodiesterase type 5 inhibitors, prostacyclin analogues) alone or in combination. Patients were monitored by ECG, pulse oxymetry, and non-invasive blood pressure measurement. An intracardiac catheter was introduced into the distal pulmonary artery to measure PAP, CVP, PCWP, and cardiac output. Also measured were the heart rate, systemic arterial pressure (SAP), systemic vascular resistance (SVR), central arterial and venous blood gases. After the initial determination of all parameters the reactivity of the pulmonary vasculature to oxygen (2 to 4 L/min) and nitric oxide (20 ppm) was tested. Subsequently, patients inhaled a single dose of 2.5 μg of nebulized iloprost in two breaths, using a prototype of a soft mist inhaler filled with iloprost in a concentration of 50 μg/ml. Hemodynamic parameters and clinical condition of the patients were assessed before and 1, 5, 15 and 30 minutes after inhalation. In the absence of adverse effects, a second inhalation maneuver with 4 breaths corresponding to a dose 5 μg iloprost was performed, again followed by an observation period of at least 30 minutes.

[2] = system: hemodynamic parameters of pulmonary circulation; settings: conventional nebulizers, administered over 10 minutes; cited from earlier work

CC#CCC(C)[C@H](O)/C=C/[C@@H]1[C@H]2C/C(=C/CCCC(=O)O)C[C@H]2C[C@H]1O (stereo partly drawn) [iloprost, 5-{(E)-(1S,5S,6R,7R)-7-hydroxy-6[(E)-(3S,4RS)-3-hydroxy-4-methyl-1-octen-6-inyl]-bicyclo[3.3.0]octan-3-ylidene}pentanoic acid]
Tolerability of the treatment ([1]; inhaled 2.5 μg (2 breaths) then 5 μg (4 breaths), prototype soft mist inhaler, iloprost 50 μg/ml, 4 patients): all patients tolerated the treatment well
Systemic side effects (SAP and SVR changes) ([1]; inhaled 2.5 μg or 5 μg, soft mist inhaler prototype, n=4): without significant systemic side effects
Onset of therapeutic pulmonary vascular effects (PAP and PVR changes) ([1]; rapid inhalation of 2.5 μg or 5 μg (2 or 4 puffs à 1.25 μg), soft mist inhaler prototype, n=4): already seen within only one minute after rapid iloprost inhalation; also recorded: already registered one minute after finishing the inhalation maneuver
Time of maximum therapeutic effects on hemodynamic parameters of pulmonary circulation after end of inhalation [2]: approximately 5 minutes
